Square brackets hold non-standard residues; d marks the D form. Ends that are not written are not given here. * marks the point of attachment. Octanoyl = CCCCCCCC(=O)*; Dap = NC[C@H](N)C(=O)O
Tests used:
[1] = Subcutaneous administration of acylated ghrelin splice variant: weight gain, food consumption, body composition in 129Sv mice; assay type: in vivo
Method: FIG. 1A is a line graph showing cumulative body weight gain of acylated ghrelin splice variant-treated (SEQ ID NOs: 2 and 5) 129Sv mice compared to vehicle-treated controls. Acylated ghrelin splice variant induces body weight gain in male wild-type mice (n=10 per group, P=0.0001). In mice treated once daily for two weeks with acylated ghrelin splice variant (0.8 mg/kg, subcutaneously), cumulative weight gain of the SEQ ID NO:2 group was 3.4 times more than the vehicle-injected control animals. Cumulative weight gain of the acylated SEQ ID NO:5 group was 2 times more than the vehicle-injected control animals. FIG. 1B is a line graph showing cumulative food consumption of acylated ghrelin splice variant-treated (SEQ ID NOs: 2 and 5) 129Sv mice compared to vehicle-treated controls. […] Mice treated once daily for two weeks with acylated ghrelin splice variant (0.8 mg/kg, subcutaneously) ate 13% more than the vehicle-injected control animals (n=10 per group, P=0.004).
FIG. 2A is a line graph showing cumulative body weight gain of acylated ghrelin splice variant-treated (SEQ ID NOs: 2 and 4) 129Sv mice and of unacylated SEQ ID NO:5 compared to vehicle-treated controls. Acylated ghrelin splice variants induces body weight gain in male wild-type mice (n=8 per group, P=0.0001). In mice treated once daily for seven days with acylated or un-acylated ghrelin splice variant (7.2 mg/kg, subcutaneously), cumulative weight gain of the SEQ ID NO:2 and SEQ ID NO:4 group was 2.2 times more than the vehicle-injected control animals. Cumulative weight gain of the un-acylated SEQ ID NO:5 group was 25% less than the vehicle-injected control animals. FIG. 2B is a line graph showing cumulative food consumption of acylated ghrelin splice variant-treated (SEQ ID NOs: 2 and 4) 129Sv mice and of unacylated SEQ ID NO:5 compared to vehicle-treated controls. […] Mice treated once daily for seven days with acylated ghrelin splice variants (7.2 mg/kg, subcutaneously) ate 18% more than the vehicle-injected control animals (n=8 per group). Mice treated once daily for seven days with SEQ ID NO:5 (7.2 mg/kg, subcutaneously) ate 2% less than the vehicle-injected control animals (n=8 per group).
FIG. 4 is a bar graph showing the change in body composition of acylated ghrelin splice variant-treated (SEQ ID NOs: 2 and 4) 129Sv mice and unacylated SEQ ID NO:5 treated mice compared to vehicle and ghrelin-treated controls. Effect of seven days daily subcutaneous treatment with saline, ghrelin or acylated ghrelin splice variant (7.2 mg/kg, subcutaneously) on fat and lean body mass as measured by NMR is shown.
Acylated ghrelin splice variant (20 μg (FIGS. 1A and 1B) or 180 μg (FIGS. 2A and 2B)) or the Vehicle (1.6% mannitol) were administered once daily for 14 successive days (FIGS. 1A and 1B) or 7 successive days (FIGS. 2A and 2B), via the subcutaneous (SC) route, to groups comprising n=10 (FIGS. 1A and 1B) or n=8 (FIGS. 2A and 2B) 129Sv male mice. […] All animals were subjected to terminal bleeding, under CO2 anesthesia, immediately prior to euthanasia. Terminal blood collection was performed serially as per animal number, and not as per group.
Biochemistry: Blood for biochemistry analysis was collected into non-coated pre-labeled tubes. The tubes were pre-labeled and contained the following information: Study number, group number, animal number and date. Following clotting, the blood from each animal was centrifuged, and the serum was collected into two pre-labeled tubes and submitted for analysis as follows: Serum, 250 μl, was kept at 2-8° C. until analysis. The samples were subjected to the following listed tests using a Hitachi 917 system: Creatinine, Total bilirubin, Glucose, Triglycerides, Cholesterol, HDL, LDL, Total protein, Globulin, Albumin, Urea, Potassium, Phosphorus, Calcium, Sodium, Chloride, sGOT, sGPT, ALP. Urinalysis: Urine was collected into pre-labeled tubes (as above) from all animals (where possible) prior and/or after euthanasia. […]

[2] = cited from earlier work
[3] = 129Sv male mice, 7.2 mg/kg subcutaneously once daily for seven days, n=8 per group
[4] = 129Sv male mice, 0.8 mg/kg subcutaneously once daily for two weeks, n=10 per group

With “SEQ ID NO:4: 24 amino acid human ghrelin splice variant having a 2,3-diaminopropionic acid (Dpr) residue in the third position, acylated (GS[Dap]FLSPEHQRVQVRPPHKAPHVV; also: Dpr3 acylated, acyl group not given here; listed as Homo sapiens)” the “cumulative weight gain, times more than the vehicle-injected control animals” value [1, 3] was 2.2 times.
In the case of “un-acylated SEQ ID NO:5: 29 amino acid human ghrelin splice variant without acyl group (GSSFLSPEHQRVQVRPPHKAPHVVPALPL; listed as Homo sapiens)”, the “cumulative weight gain, less than the vehicle-injected control animals” value [1, 3] is reported as 25% and the “cumulative food consumption, less than the vehicle-injected control animals” value ([1]; 129Sv mice, 7.2 mg/kg subcutaneously once daily for seven days, n=8 per group) is reported as 2%.
With “GSS (CO—C7H15) FLSPEHQRVQVRPPHKAPH (GSS(Octanoyl)FLSPEHQRVQVRPPHKAPH; listed as Homo sapiens) [SEQ ID NO:2, 22 amino acid human ghrelin splice variant, acylated at position 3]” the “cumulative weight gain, times more than the vehicle-injected control animals” value [1, 4] was 3.4 times and the “cumulative weight gain, times more than the vehicle-injected control animals” value [1, 3] was 2.2 times.
In the case of “ghrelin: 28 amino acid peptide bearing an n-octanoyl side chain on the third serine (GSS(Octanoyl)FLSPEHQRVQQRKESKKPPAKLQPR; UniProt Q9UBU3 24-51, looked up)”, the “effect of weight gain (lean vs fat mass)” value ([1]; Applicant's statement in the background) is given as “mainly on fat mass”, the “increase of food intake” value ([2]; infusion for 90 minutes, cancer cachexia patients) is given as 30% and the “increase of energy intake” value ([2]; subcutaneous injection of 3.6 nmol/kg prior to a meal) is given as 27%.
In the case of “acylated SEQ ID NO:5: 29 amino acid human ghrelin splice variant, acylated at position 3 (GSSFLSPEHQRVQVRPPHKAPHVVPALPL; also: acylated at position 3 (acyl group not given here); listed as Homo sapiens)”, the “cumulative weight gain, times more than the vehicle-injected control animals” value [1, 4] is reported as 2 times.

— patent publication US7763707B2, “Use of ghrelin splice variant for treating cachexia and/or anorexia and/or anorexia-cachexia and/or malnutrition and/or lipodystrophy and/or muscle wasting and/or appetite-stimulation” (priority 2006, dated 2010)
